The IC50 is the concentration needed to halve the response being measured. One may read the Ki as a measure of affinity in units of concentration, obtained from inhibition or displacement.

These results are taken from PMC10609854 (Pharmaceuticals, 2023).

Test [1] concerns carrageenan-induced thermal hyperalgesia. Put plainly: carrageenan-induced thermal hyperalgesia (plantar test). As to conditions: rats. Type of test: in vivo. On the procedure:
(§1) The acute, local inflammation and paw edema was induced by subplantar injection of 0.1 mL of 1% carrageenan (made in PBS) into the rat right hind paw. The paw volume was measured using the dislocation of the water column of the plethysmometer (Plethysmometr 7140, Ugo Basile) before and at 1, 2, and 3 h after subplantar injection of carrageenan.
To evaluate the heightened sensitivity to thermal stimuli, we employed a plantar test apparatus (Commat Ltd., Ankara, Turkey). Rats were individually placed in plexiglass chambers and allowed to acclimatize for 20 to 30 min before testing. A radiant heat source was positioned beneath the chamber floor, directly under the hind paw. The time it took for the paw to withdraw in response to the heat was automatically recorded by a photocell and an electronic timer. The intensity of the radiant heat was adjusted to achieve baseline withdrawal times of 10–15 s, and a preset cut-off time of 30 s was established to prevent tissue damage. […] Three successive applications of the heating stimulus were performed, with 1- to 2-minute intervals between them, and the mean of these measurements was calculated. Paw withdrawal latency was recorded for each animal before carrageenan administration and at 1, 2, and 3 h afterward.

Test [2] deals with hMAO B. Also on record: method as in PMID 34208297. As to conditions: cited from earlier work.
The subject of test [3] is eqBuChE. Set-up: method as in PMID 34208297. The following applies: cited from earlier work.
Test [4] relates to (R)-(-)-α-methylhistamine-induced dipsogenia. Set-up: method as in PMID 28797771. The following applies: rats; cited from earlier work.
Test [5] relates to carrageenan-induced edema. Put plainly: carrageenan-induced paw edema. Type of test: in vivo. As to conditions: rats, 30 mg/kg. On the procedure: as §1
Test [6] has as its system SLIGRL-induced pruritus. In words: SLIGRL-induced pruritus. The class given is in vivo. The following applies: mice, 45 min observation. On the procedure:
The area (around 2 cm^2) of the nape of mice was shaved at least 2 days prior to experiments. On the day of the experiment, each mouse was individually placed in plastic chambers (15 × 15 × 30 cm). After the 30 min period of habituation, the mice received an intradermal (i.d.) injection of histamine dihydrochloride (10 µmol/site), chloroquine (CQ, 200 µg/site), or SLIGRL-NH2 (40 nmol/site), which were dissolved in physiological saline and administrated at the constant volume of 20 μL. Immediately following the injection, scratching (series of movements considered as a single scratching bout usually consisted of three single scratches) of the injected site by the hind paw was counted for 60 min, 30 min, or 45 min after histamine, CQ, and SLIGRL-NH2 injection, respectively.

The target of test [7] is human histamine H1 receptor. Set-up: method as in PMID 28797771. As to conditions: cited from earlier work.
Test [8] relates to H3R. Set-up: method as in PMID 28797771. The following applies: read-out: IC50, cAMP accumulation assay (H3R antagonist potency); cited from earlier work.
Test [9] has as its system formalin-induced pain. Put plainly: formalin test. Type of test: in vivo, mice. On the procedure:
The mice received an intraperitoneal (i.p.) injection of either the test compound or a control solution. After 30 min, a 20 μL injection of a 2.5% formalin solution was administered into the right hind paw. Right after the formalin injection, the animals were individually placed into glass containers and observed for the following 30 min. During specific time intervals (0–5 min, referred to as Phase I, and 15–30 min, referred to as Phase II, post-formalin injection), the time spent by the animals licking or biting the injected paw was recorded..

The subject of test [10] is carrageenan-induced mechanical hyperalgesia. Put plainly: carrageenan-induced mechanical hyperalgesia (Randall-Selitto). As to conditions: rats, 3 h after carrageenan, vehicle 87.8%. The class given is in vivo. Here is the method: as §1
Furthermore, to assess the heightened sensitivity to mechanical stimuli, we employed the pain pressure threshold test. This involved applying increasing pressure to the dorsal surface of the right hind paw using an automated gauge (Analgesy Meter 37215, Ugo Basile, Gemonio, Italy), following the method outlined by Randall and Selitto. The force’s intensity, measured in grams, was recorded when the paw was withdrawn (withdrawal threshold). For each animal, withdrawal thresholds were recorded both prior to the administration of carrageenan and three hours afterward. The results were expressed as a percentage of the initial reaction, with the nociceptive response before carrageenan administration considered as the baseline (100% response).

For test [11], the system named is capsaicin-induced pain. In words: capsaicin test. The class given is in vivo. As to conditions: mice, all doses (10, 15 and 30 mg/kg i.p.). On the procedure: The mice received an intraperitoneal (i.p.) injection of either the test compound or a control solution. After 30 min, an intraplantar injection of 1.6 µg capsaicin in a 20 μL solution of 0.9% NaCl was administered to the right hind paw. Right after the capsaicin injection, the animals were individually placed into glass containers and observed for the subsequent 5 min. During this observation period, the time that each animal spent licking or biting the injected paw was recorded.

For test [12], the target named is human histamine H3 receptor. Set-up: method as in PMID 28797771. The following applies: [3H]Nα-methylhistamine in HEK293 cells; cited from earlier work.

Where “and” joins values, the source holds several entries; their conditions need not be identical. Equal values may be shown once.

`O=C(O)C(=O)O.c1ccc(-c2ccc(OCCCCCN3CCCCCC3)cc2)cc1` [Compound E153, 1-(5-(4-Phenylphenoxy)pentyl)azepane hydrogen oxalate]: the “paw withdrawal latency (thermal), % of baseline” value in test [1] (15 mg/kg, 1 h after carrageenan) turned out to be 100.8%; in test [1] (15 mg/kg, 2 h after carrageenan), 122.6%; in test [1] (15 mg/kg, 3 h after carrageenan), 122.6%; in test [1] (30 mg/kg, 1 h after carrageenan), 130.3%; in [1] (30 mg/kg, 2 h after carrageenan), 114.8%; in [1] (30 mg/kg, 3 h after carrageenan), 126.6%. For the same compound, the values for the IC50 in [2], in test [3] and in [8] were 240 nM, 590 nM and 9 nM, respectively. Further, in test [4], the “ED50, (R)-(-)-α-methylhistamine-induced dipsogenia” value is listed as 1.75 mg/kg. Besides, the “paw volume increase, carrageenan edema” value in test [5] (1 h after carrageenan, vehicle 51.1%) is 27.1%; in test [5] (2 h after carrageenan, vehicle 102.4%), 45.4%; in test [5] (3 h after carrageenan, vehicle 123.5%), 42.6%. Besides, the “scratch bouts, SLIGRL-induced pruritus” value in test [6] (5 mg/kg i.p.) is reported as “not effective”; in test [6] (7.5 and 10 mg/kg i.p.) it was “significantly diminished”. Also, the Ki in [7] was 1270 nM; in [12], 34 nM and 33.9 nM. In addition, in test [9] (mice, 10, 15 and 30 mg/kg i.p., 0–5 min after formalin), the “duration of the nociceptive response, acute phase of the formalin test” value is on record as “did not significantly affect”. Besides, the “paw licking or biting behavior, late phase of the formalin test” value in test [9] (mice, all doses tested (10, 15 and 30 mg/kg i.p.), 15–30 min after formalin) was “significantly attenuated”. The figures for the “mechanical pain threshold, % of baseline” value in test [10] (15 mg/kg) and in test [10] (30 mg/kg) were 112.5% and 111.8%, respectively. Further, in test [11], the “paw licking or biting behavior, capsaicin test” value was “significantly decreased”.
